Laboratory results reported in US9182397B2, “Immunoassay for detecting antibiotics” (DSM IP ASSETS B.V., priority 2011, dated 2015).
One block for each compound: values may come before it.

Tested on: Penicillin binding protein purified from Bacillus stearothermophilus
Experiment: Sensitivity of the test device for different antibiotics (Example 23)
Design: key: 0: no intensity; 1: low intensity; 2: medium intensity; 3: high intensity
Method: A nitrocellulose HF90 membrane (Millipore; length 25 mm) was used as a detection region. The membrane was glued to a polystyrene laminated card (thickness 0.254 mm) 8 mm from the proximal end of the card. Next, the detection zone and control zone were applied onto the nitrocellulose membrane. The detection zone was applied by dispensing 1 mg/ml of a 7ACA-spacer-BSA conjugate in 20 mM KPO4-buffer (pH 7.5) with a Biodot Dispense workstation XYZ 3050 with frontline at 0.2 μl/cm. The control zone was applied by dispensing 0.15 mg/ml of an anti-IgY antibody in 20 mM KPO4-buffer (pH 7.5) comprising 0.675 mg/ml BSA, 5% w/v saccharose and 20 mM NaCl with a Biodot Dispense workstation XYZ 3050 with frontline at 0.8 μl/cm. After drying of the zones, the nitrocellulose membrane was blocked by spraying a solution comprising 10 mM Tris buffer (pH 8) comprising 2% w/v BSA and 0.05% w/v Tween-20 using a Biodot Dispense workstation XYZ 3050 with airjet 3×. The solution was sprayed onto the membrane at a distance of 2 mm below the detection zone. Thereafter, the sample receiving region (VF2 membrane from Millipore; length 1 cm) was glued at the proximal end of the card overlapping 2 mm with the nitrocellulose membrane. The absorbing region (10038 membrane from Millipore; length 20 mm) was glued at the distal end of the card with an overlap of 2 mm on the nitrocellulose membrane. The obtained cards were dried at 37° C. in a dry atmosphere (0% relative humidity). The card was cut in strips of 5.2 mm width and kept at a dry atmosphere (0% relative humidity).
Streptavidin-coated gold particles were synthesized by reacting colloidal gold (diameter 40 nm; 1 OD/ml) with 10 μg/ml streptavidin. Next, the obtained solution was concentrated by tangential flow filtration, washed and stored in a Tris buffer (pH 8) including NaCN. Penicillin binding protein purified from Bacillus stearothermophilus was biotinylated (1:4) with D-biotinyl-epsilon-aminocaproic acid-N-hydroxysuccinimide ester. Next, the penicillin binding protein-gold conjugate was synthesized by reacting 1.5 μg biotinylated penicillin binding protein with 1 OD streptavidin-coated gold particles for 1 hour, followed by centrifugation at 10,000×g for 5 minutes and resuspension of the obtained pellet in 45 mM bicarbonate buffer comprising 0.1% w/v Triton X-100 (pH 9.6).
Thereafter, 140-200 mOD of the penicillin binding protein-gold conjugate and 5-20 mOD of the IgY-gold conjugate was solubilized in 100 μl buffer (80 mM Tris buffer comprising 0.01% w/v Triton-X-100, 0.4% w/v BSA, 5% v/v glycerin and 2% w/v saccharose (pH 8.5)) and 0.75 μl of the solution was dispensed per tube and dried for 12 hours at 40° C. The obtained tubes were sealed.
150 μl of spiked milk was added per tube containing the dried conjugates. The concentration of penicillin G in the added milk varied from 0 to 4 ng/g (tube 1: 0 ng/g; […]; tube 2: 2 ng/g; tube 3: 3 ng/g; and tube 4: 4 ng/g). The obtained liquid composition was incubated for 2 minutes at 64° C. in an incubator. A test device was put into the tube and incubated for 3 minutes at 64° C. in the incubator. The result was read by eye.
The test was done essentially as described in Example 3, with the proviso that different antibiotics at different concentrations were tested.

Intensity of detection zone (Cefalonium 3.2 ng/g in milk): 2 | Intensity of detection zone (Cefalonium 4.0 ng/g in milk): 1 | Intensity of detection zone (Cefalonium 4.8 ng/g in milk): 0 | Intensity of detection zone (Cefalonium 5.6 ng/g in milk): 0 | Intensity of detection zone (Cefalonium 6.4 ng/g in milk): 0
SMILES: NC(=O)c1cc[n+](CC2=C(C(=O)[O-])N3C(=O)[C@@H](NC(=O)Cc4cccs4)[C@H]3SC2)cc1 [Cefalonium]

Intensity of detection zone (Cloxacillin 32.5 ng/g in milk): 1 | Intensity of detection zone (Cloxacillin 43.2 ng/g in milk): 0 | Intensity of detection zone (Cloxacillin 53.9 ng/g in milk): 0 | Intensity of detection zone (Cloxacillin 64.6 ng/g in milk): 0 | Intensity of detection zone (Cloxacillin 75.3 ng/g in milk): 0
SMILES: Cc1onc(-c2ccccc2Cl)c1C(=O)N[C@@H]1C(=O)N2[C@@H]1SC(C)(C)[C@@H]2C(=O)O [Cloxacillin]

Intensity of detection zone (Dicloxacillin 15.0 ng/g in milk): 3 | Intensity of detection zone (Dicloxacillin 20.0 ng/g in milk): 2 | Intensity of detection zone (Dicloxacillin 25.0 ng/g in milk): 2 | Intensity of detection zone (Dicloxacillin 30.0 ng/g in milk): 1 | Intensity of detection zone (Dicloxacillin 35.0 ng/g in milk): 0
SMILES: Cc1onc(-c2c(Cl)cccc2Cl)c1C(=O)N[C@@H]1C(=O)N2[C@@H]1SC(C)(C)[C@@H]2C(=O)O [Dicloxacillin]

Intensity of detection zone (Oxacillin 27.0 ng/g in milk): 2 | Intensity of detection zone (Oxacillin 34.8 ng/g in milk): 2 | Intensity of detection zone (Oxacillin 42.6 ng/g in milk): 1 | Intensity of detection zone (Oxacillin 50.4 ng/g in milk): 0 | Intensity of detection zone (Oxacillin 58.2 ng/g in milk): 0
SMILES: Cc1onc(-c2ccccc2)c1C(=O)N[C@@H]1C(=O)N2[C@@H]1SC(C)(C)[C@@H]2C(=O)O [Oxacillin]

Second part, the compound before the results:

SMILES: CC1(C)S[C@@H]2[C@H](NC(=O)[C@H](N)c3ccc(O)cc3)C(=O)N2[C@H]1C(=O)O [Amoxicillin]
Intensity of detection zone (Amoxicillin 3.3 ng/g in milk): 2 | Intensity of detection zone (Amoxicillin 4.3 ng/g in milk): 1 | Intensity of detection zone (Amoxicillin 5.3 ng/g in milk): 1 | Intensity of detection zone (Amoxicillin 6.3 ng/g in milk): 0 | Intensity of detection zone (Amoxicillin 7.3 ng/g in milk): 0

SMILES: CC1(C)S[C@@H]2[C@H](NC(=O)[C@H](N)c3ccccc3)C(=O)N2[C@H]1C(=O)O [Ampicillin]
Intensity of detection zone (Ampicillin 5.3 ng/g in milk): 2 | Intensity of detection zone (Ampicillin 6.9 ng/g in milk): 1 | Intensity of detection zone (Ampicillin 8.5 ng/g in milk): 0 | Intensity of detection zone (Ampicillin 10.1 ng/g in milk): 0 | Intensity of detection zone (Ampicillin 11.7 ng/g in milk): 0

SMILES: CC1=C(C(=O)O)N2C(=O)[C@@H](NC(=O)[C@H](N)c3ccccc3)[C@H]2SC1 [Cefalexin]
Intensity of detection zone (Cefalexin 34.0 ng/g in milk): 2 | Intensity of detection zone (Cefalexin 43.0 ng/g in milk): 1 | Intensity of detection zone (Cefalexin 52.0 ng/g in milk): 0 | Intensity of detection zone (Cefalexin 61.0 ng/g in milk): 0 | Intensity of detection zone (Cefalexin 70.0 ng/g in milk): 0

SMILES: Cc1nnc(SCC2=C(C(=O)O)N3C(=O)[C@@H](NC(=O)Cn4cnnn4)[C@H]3SC2)s1 [Cefazolin]
Intensity of detection zone (Cefazolin 10.0 ng/g in milk): 2 | Intensity of detection zone (Cefazolin 12.5 ng/g in milk): 1 | Intensity of detection zone (Cefazolin 15.0 ng/g in milk): 0 | Intensity of detection zone (Cefazolin 17.5 ng/g in milk): 0 | Intensity of detection zone (Cefazolin 20.0 ng/g in milk): 0

SMILES: CCN1CCN(C(=O)N[C@@H](C(=O)N[C@@H]2C(=O)N3C(C(=O)O)=C(CSc4nnnn4C)CS[C@H]23)c2ccc(O)cc2)C(=O)C1=O [Cefoperazone]
Intensity of detection zone (Cefoperazone 4.0 ng/g in milk): 2 | Intensity of detection zone (Cefoperazone 4.9 ng/g in milk): 2 | Intensity of detection zone (Cefoperazone 5.8 ng/g in milk): 1 | Intensity of detection zone (Cefoperazone 6.7 ng/g in milk): 1 | Intensity of detection zone (Cefoperazone 7.6 ng/g in milk): 0

SMILES: CO/N=C(\C(=O)N[C@@H]1C(=O)N2C(C(=O)[O-])=C(C[n+]3cccc4c3CCCC4)CS[C@H]12)c1csc(N)n1 [Cefquinome]
Intensity of detection zone (Cefquinome 12.5 ng/g in milk): 2 | Intensity of detection zone (Cefquinome 15.8 ng/g in milk): 1 | Intensity of detection zone (Cefquinome 19.1 ng/g in milk): 0 | Intensity of detection zone (Cefquinome 22.4 ng/g in milk): 0 | Intensity of detection zone (Cefquinome 25.7 ng/g in milk): 0

SMILES: CO/N=C(\C(=O)N[C@@H]1C(=O)N2C(C(=O)O)=C(CSC(=O)c3ccco3)CS[C@H]12)c1csc(N)n1 [Ceftiofur]
Intensity of detection zone (Ceftiofur 4.0 ng/g in milk): 2 | Intensity of detection zone (Ceftiofur 5.1 ng/g in milk): 1 | Intensity of detection zone (Ceftiofur 6.2 ng/g in milk): 0 | Intensity of detection zone (Ceftiofur 7.3 ng/g in milk): 0 | Intensity of detection zone (Ceftiofur 8.4 ng/g in milk): 0

SMILES: CCOc1ccc2ccccc2c1C(=O)N[C@@H]1C(=O)N2[C@@H]1SC(C)(C)[C@@H]2C(=O)O [Nafcillin]
Intensity of detection zone (Nafcillin 40.0 ng/g in milk): 3 | Intensity of detection zone (Nafcillin 50.5 ng/g in milk): 2 | Intensity of detection zone (Nafcillin 61.0 ng/g in milk): 1 | Intensity of detection zone (Nafcillin 71.5 ng/g in milk): 0 | Intensity of detection zone (Nafcillin 82.0 ng/g in milk): 0
